Active and inactive are the calls of the source.
How the values were obtained:
[1] = molecular target: T1, Potassium channel subfamily K member 9 (Homo sapiens, UniProt Q9NPC2); assay: TASK3 (KCNK9) channel inhibitors, thallium flux, SAR follow-up, selectivity assay for TASK1 inhibitor project, cell-based, FluxOR thallium flux, concentration-response (AID 652211); format: functional;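 note: potency is for inhibitors of the channel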
[2] = molecular target: Potassium channel subfamily K member 3 (Rattus norvegicus, UniProt O54912); assay: SAR analysis for the identification of selective inhibitors of the two-pore domain potassium channel TASK1(KCNK3):Automated Electrophysiology.; format: functional
[3] = molecular target: T1, Potassium channel subfamily K member 9; assay: KCNK9 (TASK3) current inhibition by patch clamp, SAR follow-up, selectivity assay for TASK1 (KCNK3) inhibitor project, cell-based, automated electrophysiology (AID 652210); format: functional
[4] = molecular target: T2, Methionyl-tRNA synthetase, putative (Trypanosoma brucei brucei, UniProt Q38C91); format: functional, Trypanosoma brucei brucei strain 927/4 GUTat10.1
T2 sequence (Q38C91 whole entry): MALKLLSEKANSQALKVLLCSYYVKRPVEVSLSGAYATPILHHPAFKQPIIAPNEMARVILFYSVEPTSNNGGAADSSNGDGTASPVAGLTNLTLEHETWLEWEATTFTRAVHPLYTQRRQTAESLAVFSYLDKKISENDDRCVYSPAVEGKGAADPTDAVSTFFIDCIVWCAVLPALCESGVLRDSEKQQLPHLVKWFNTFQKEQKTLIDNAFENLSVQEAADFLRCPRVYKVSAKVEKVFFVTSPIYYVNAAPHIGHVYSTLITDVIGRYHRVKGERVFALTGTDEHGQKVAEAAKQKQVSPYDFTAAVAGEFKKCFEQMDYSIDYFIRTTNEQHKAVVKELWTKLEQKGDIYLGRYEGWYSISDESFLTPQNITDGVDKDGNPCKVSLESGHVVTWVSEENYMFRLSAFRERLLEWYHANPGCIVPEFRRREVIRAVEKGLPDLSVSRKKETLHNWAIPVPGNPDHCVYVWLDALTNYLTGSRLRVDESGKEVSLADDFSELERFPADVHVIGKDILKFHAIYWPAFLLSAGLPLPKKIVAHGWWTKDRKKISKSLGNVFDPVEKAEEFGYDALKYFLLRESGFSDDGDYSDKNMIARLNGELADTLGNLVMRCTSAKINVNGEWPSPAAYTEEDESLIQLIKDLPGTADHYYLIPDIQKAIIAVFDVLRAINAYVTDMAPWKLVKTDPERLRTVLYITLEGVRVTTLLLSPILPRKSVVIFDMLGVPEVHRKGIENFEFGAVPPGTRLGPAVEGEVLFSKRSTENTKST

[5] = Late stage counterscreen for inhibitors of Trypanosoma brucei methionyl tRNA synthetase (MetRS): Luminescence-based cell-based high throughput dose response assay to identify compounds that are cytotoxic to Jurkat human T lymphocyte cells.; format: functional
[6] = Counterscreen for inhibitors of Trypanosoma brucei methionyl tRNA synthetase (MetRS): Luminescence-based cell-based high throughput dose response assay to identify compounds that are cytotoxic to Jurkat human T lymphocyte cells.; format: functional
[7] = molecular target: T2, Methionyl-tRNA synthetase, putative; format: functional, Trypanosoma brucei brucei strain 927/4 GUTat10.1; remark: listed apart in the source
[8] = molecular target: NAD-dependent protein deacylase sirtuin-5, mitochondrial (Homo sapiens, UniProt Q9NXA8); assay: SIRT5 desuccinylase inhibitors, dose response, biochemical, fluorescence imaging, cherry-pick, set 5 (AID 720591);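 note: desuccinylation of succinyl peptide AMC substrate read as fluorescence after trypsin release; potency of inhibitors that lower fluorescence and may act on trypsin instead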
[9] = Luminescence Cell-Based Dose Response HTS to Identify Activators of Luciferase Translation or Activity in H4 […] Cells. [Related pubchem assays: 1829 (Project Summary), 1814 (Primary HTS)]; format: functional
[10] = molecular target: Transthyretin (Homo sapiens, UniProt P02766); assay: Luminescence-based cell-based high throughput dose response assay to identify activators of Transthyretin (TTR) transcription.; format: functional
[11] = Luminescence Cell-Based Dose Confirmation HTS to Identify Activators of 5'UTR Stem-Loop Driven Alpha-Synuclein mRNA Translation in H4 Neuroglioblastoma Cells. [Related pubchem assays: 1829 (Project Summary), 1814 (Primary HTS)]; format: functional
[12] = system: H4; assay: Luminescence Cell-Based Dose Response HTS to Identify Activators of 5'UTR Stem-Loop Driven Prion Protein mRNA Translation in H4 Neuroglioblastoma Cells. [Related pubchem assays: 1829 (Project Summary), 1814 (Primary HTS)]; format: functional; conditions: Homo sapiens
[13] = molecular target: E3 ubiquitin-protein ligase UHRF1 (Homo sapiens, UniProt Q96T88); assay: Counterscreen for inhibitors of 5-meCpG-binding domain protein 2 (MBD2): TRFRET-based biochemical high throughput dose response assay to identify inhibitors of binding of ubiquitin-like with PHD and ring finger domains 1 (UHRF1) to methylated oligonucleotide.
[14] = molecular target: T3, Estrogen receptor beta (Homo sapiens, UniProt Q92731); assay: ERβ–SRC-3 coactivator interaction inhibitors, confirmation, orthogonal assay, biochemical, ELISA, streptavidin-HRP readout (AID 1060)
[15] = molecular target: T3, Estrogen receptor beta
[16] = HCT116 cell viability decrease, GSK3B pretreatment – CellTiter-Glo, IC50, dose response (AID 1117339); format: functional; conditions: HCT-116
[17] = SNU-C1 cell viability reduction, dose response, CellTiter-Glo luminescence (AID 1117323); format: functional, cell-based
[18] = CellTiter-Glo luminescent dose response of DLD-1 viability loss (AID 1117352); format: functional
[19] = cytotoxicity toward Colo320 cells – cell-based, CellTiter-Glo luminescence, IC50, dose response (AID 1117334); format: functional; conditions: COLO 320
[20] = RKO cell viability reduction, dose response, CellTiter-Glo luminescence (AID 1117322); format: functional
[21] = Concentration-dependent survival of SW480 colon cancer line, luminescence detection with CellTiter-Glo, half-maximal inhibitory concentration (AID 1117338); format: functional
[22] = cytotoxicity toward HCT116 cells – cell-based, CellTiter-Glo luminescence, IC50, dose response (AID 1117332); format: functional; conditions: HCT-116
[23] = cytotoxicity toward HT-29 cells – cell-based, CellTiter-Glo luminescence, IC50, dose response (AID 1117330); format: functional
[24] = molecular target: T4, Oxysterols receptor LXR-beta (Homo sapiens, UniProt P55055); format: functional, cell-based;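 note: Cell-based luminescence dose-response assay of agonist activity at LXR, run as a confirmatory counterscreen to a daf-12 agonist screen; agonist potency from rising luciferase signal of a Gal4-LXR reporter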
T4 sequence (P55055 whole entry): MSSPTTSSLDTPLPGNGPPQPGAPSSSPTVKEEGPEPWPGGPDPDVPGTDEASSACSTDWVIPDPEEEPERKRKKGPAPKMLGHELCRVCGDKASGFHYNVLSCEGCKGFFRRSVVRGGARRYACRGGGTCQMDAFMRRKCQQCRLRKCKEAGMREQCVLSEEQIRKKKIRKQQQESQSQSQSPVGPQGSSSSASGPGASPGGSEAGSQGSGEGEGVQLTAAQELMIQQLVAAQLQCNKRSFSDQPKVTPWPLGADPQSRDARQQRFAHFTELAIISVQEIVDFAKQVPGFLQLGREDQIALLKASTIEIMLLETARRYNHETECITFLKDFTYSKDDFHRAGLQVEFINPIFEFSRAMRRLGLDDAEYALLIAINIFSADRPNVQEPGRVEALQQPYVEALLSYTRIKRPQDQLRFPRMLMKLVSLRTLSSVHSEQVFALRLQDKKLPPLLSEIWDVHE

[25] = cells
[26] = molecular target: T4, Oxysterols receptor LXR-beta; assay: LXR agonists, Gal4 luciferase reporter, dose response, counter-screen for ssDAF-12 agonist project, cell-based, luminescence, HEK293, S. stercoralis campaign (AID 720737); format: functional; conditions: read-out: IC50 (the source's name)
[27] = Luminescence-based cell-based high throughput dose response assay to identify activators of the DAF-12 from the parasite S. stercoralis (ssDAF-12).; format: functional

T3 sequence (Q92731 whole entry): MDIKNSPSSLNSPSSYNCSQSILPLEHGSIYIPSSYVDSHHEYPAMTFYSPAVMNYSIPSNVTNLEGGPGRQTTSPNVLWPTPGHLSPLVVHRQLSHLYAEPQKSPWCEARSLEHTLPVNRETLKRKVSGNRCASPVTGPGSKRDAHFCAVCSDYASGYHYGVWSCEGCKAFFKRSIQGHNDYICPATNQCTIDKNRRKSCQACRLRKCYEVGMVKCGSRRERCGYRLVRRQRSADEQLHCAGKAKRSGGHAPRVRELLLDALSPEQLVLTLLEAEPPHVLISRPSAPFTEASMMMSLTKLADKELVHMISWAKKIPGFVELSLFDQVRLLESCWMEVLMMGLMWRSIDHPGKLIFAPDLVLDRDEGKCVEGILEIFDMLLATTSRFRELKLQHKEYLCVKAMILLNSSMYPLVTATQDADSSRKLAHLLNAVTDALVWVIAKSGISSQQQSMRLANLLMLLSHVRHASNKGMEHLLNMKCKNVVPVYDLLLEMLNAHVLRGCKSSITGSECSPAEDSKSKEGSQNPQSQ
T1 sequence (Q9NPC2 whole entry, the tested form may be a part): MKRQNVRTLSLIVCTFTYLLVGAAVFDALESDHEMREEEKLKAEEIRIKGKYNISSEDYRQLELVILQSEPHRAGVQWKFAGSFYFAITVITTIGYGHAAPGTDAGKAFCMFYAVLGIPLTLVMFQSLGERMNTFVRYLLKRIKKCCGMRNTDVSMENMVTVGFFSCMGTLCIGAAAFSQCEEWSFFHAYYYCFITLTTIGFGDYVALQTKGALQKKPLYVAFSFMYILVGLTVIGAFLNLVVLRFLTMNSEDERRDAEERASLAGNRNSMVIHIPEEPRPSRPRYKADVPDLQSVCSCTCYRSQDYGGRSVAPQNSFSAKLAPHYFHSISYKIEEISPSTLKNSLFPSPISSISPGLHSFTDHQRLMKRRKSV
Chain of E3 ubiquitin-protein ligase UHRF1 (Q96T88 whole entry, the tested form may be a part): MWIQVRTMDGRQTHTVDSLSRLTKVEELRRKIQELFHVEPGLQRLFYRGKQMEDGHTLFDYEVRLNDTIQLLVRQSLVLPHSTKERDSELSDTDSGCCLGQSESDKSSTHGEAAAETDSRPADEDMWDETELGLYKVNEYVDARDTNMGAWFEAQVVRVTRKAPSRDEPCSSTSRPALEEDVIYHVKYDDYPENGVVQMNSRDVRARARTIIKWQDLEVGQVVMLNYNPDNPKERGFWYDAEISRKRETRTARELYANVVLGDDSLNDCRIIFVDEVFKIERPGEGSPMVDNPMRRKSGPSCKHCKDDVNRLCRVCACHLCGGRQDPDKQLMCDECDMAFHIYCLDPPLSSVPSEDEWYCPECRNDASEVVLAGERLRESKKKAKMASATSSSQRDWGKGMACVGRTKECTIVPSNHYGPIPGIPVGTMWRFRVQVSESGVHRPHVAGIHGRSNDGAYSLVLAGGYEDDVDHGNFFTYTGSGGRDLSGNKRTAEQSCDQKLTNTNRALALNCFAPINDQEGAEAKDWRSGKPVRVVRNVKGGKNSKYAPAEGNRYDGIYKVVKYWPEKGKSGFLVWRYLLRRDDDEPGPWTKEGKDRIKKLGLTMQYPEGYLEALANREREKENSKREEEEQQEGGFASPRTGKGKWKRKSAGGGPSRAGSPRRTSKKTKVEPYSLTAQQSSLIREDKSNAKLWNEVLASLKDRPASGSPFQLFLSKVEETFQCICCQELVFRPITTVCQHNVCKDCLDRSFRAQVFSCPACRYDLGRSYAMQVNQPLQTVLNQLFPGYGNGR
Chain of NAD-dependent protein deacylase sirtuin-5, mitochondrial (Q9NXA8 whole entry): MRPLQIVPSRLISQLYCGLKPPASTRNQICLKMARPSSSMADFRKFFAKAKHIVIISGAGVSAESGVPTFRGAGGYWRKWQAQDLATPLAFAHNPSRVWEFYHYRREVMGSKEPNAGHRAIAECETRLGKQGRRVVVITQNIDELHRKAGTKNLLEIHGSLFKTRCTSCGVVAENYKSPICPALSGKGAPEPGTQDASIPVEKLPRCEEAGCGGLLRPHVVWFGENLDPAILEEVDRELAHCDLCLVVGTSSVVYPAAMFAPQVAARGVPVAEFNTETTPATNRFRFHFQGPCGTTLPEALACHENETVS
Chain of Potassium channel subfamily K member 3 (O54912 whole entry, the tested form may be a part): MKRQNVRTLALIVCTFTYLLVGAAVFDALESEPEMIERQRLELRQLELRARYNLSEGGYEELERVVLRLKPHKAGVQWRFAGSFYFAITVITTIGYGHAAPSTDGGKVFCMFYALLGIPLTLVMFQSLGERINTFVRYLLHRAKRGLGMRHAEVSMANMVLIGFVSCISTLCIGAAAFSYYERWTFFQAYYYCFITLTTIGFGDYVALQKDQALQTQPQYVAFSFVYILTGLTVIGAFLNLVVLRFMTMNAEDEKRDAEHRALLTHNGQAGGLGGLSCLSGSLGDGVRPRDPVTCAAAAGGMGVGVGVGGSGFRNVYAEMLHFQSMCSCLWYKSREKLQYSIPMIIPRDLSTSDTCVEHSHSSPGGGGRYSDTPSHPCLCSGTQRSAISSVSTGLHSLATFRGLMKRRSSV

SMILES: COc1ccccc1C(=O)Nc1cccc(NC(=O)c2cccc(C)c2)c1
- IC50 [1]: 0.26 µM (active)
- IC50 [2]: 0.012 µM (active)
- IC50 [3]: 0.48 µM (active)

SMILES: CC(C)(C)[C@H]1C=C(C(=O)NCc2nc3ccccc3[nH]2)O[C@@H](OCc2ccc(CO)cc2)C1
- IC50 [4]: 3.78 µM (active)
- IC50 [5]: 77 µM (inactive)
- IC50 [6]: 44.2 µM (inactive)
- IC50 [7]: 1.99 µM (active)

SMILES: O=C(O)CCNC(=O)c1ccc(NC(=O)Cc2ccc(Cl)cc2)cc1
- AC50 [8]: 18.8 µM (active)

SMILES: COc1cccc(-c2csc(NC(=O)C3CC3)n2)c1
- EC50 [9]: 33.5 µM (active)
- EC50 [10]: > 167 µM (inactive)
- EC50 [11]: 94 µM (active)
- EC50 [12]: > 120 µM (not active)

SMILES: Cc1onc(-c2ccccc2Cl)c1C(=O)NCc1ccco1
- IC50 [13]: > 43.8 µM (inactive)
- IC50 [14]: > 50 µM (not active)
- IC50 [15]: > 50 µM (not active)

SMILES: C/C(=N\O)[C@@H](C)NCC(C)(C)CN[C@H](C)/C(C)=N/O
- IC50 [16]: > 20 µM (inactive)
- IC50 [17]: > 20 µM (inactive)
- IC50 [18]: > 20 µM (inactive)
- IC50 [19]: > 20 µM (inactive)
- IC50 [20]: > 20 µM (inactive)
- IC50 [21]: > 20 µM (inactive)
- IC50 [22]: > 20 µM (inactive)
- IC50 [23]: > 20 µM (inactive)

SMILES: COc1cccc(-c2nc3n(n2)CCc2ccccc2-3)c1
- EC50 [24]: > 67.5 µM (inactive)
- EC50 [25]: > 67.5 µM (inactive)

SMILES: C[C@@H](c1ccccc1)N1C[C@@H](COCc2ccccc2)Oc2cc(N3CCC[C@H]3C(N)=O)ccc2S1(=O)=O
- EC50 [26]: > 67.5 µM (inactive)
- IC50 [27]: > 67.5 µM (inactive)
